Experimental data as given in ChEMBL document CHEMBL5550222, “Synthesis and Biological Evaluation of Novel Psidium Meroterpenoid Derivatives against Cisplatin-Induced Acute Kidney Injury” (J Med Chem, 2024).
The source made the active and inactive calls. The rule behind the calls is not given here.

Experiments:
HK-2 [1] = experiment: Protection against cisplatin-induced nephrotoxicity in human HK-2 cells assessed as cell viability at 5 uM preincubated with compound for 2 hrs followed by cisplatin induction and measured after 72 hrs by MTT assay (reference value: 45.1 +/- 3.2%); format: functional; conditions: time 74 hrs, read-out: Activity
[2] = Cytotoxicity against human HK-2 cells incubated for 72 hrs by MTT assay; format: toxicity, cell-based
HK-2 [3] = experiment: Protection against cisplatin-induced nephrotoxicity in human HK-2 cells assessed as cell viability at 1 uM preincubated with compound for 2 hrs followed by cisplatin induction and measured after 72 hrs by MTT assay (reference value: 45.1 +/- 3.2%); format: functional; conditions: time 74 hrs, read-out: Activity
HK-2 [4] = experiment: Protection against cisplatin-induced nephrotoxicity in human HK-2 cells assessed as cell viability at 10 uM preincubated with compound for 2 hrs followed by cisplatin induction and measured after 72 hrs by MTT assay (reference value: 45.1 +/- 3.2%); format: functional; conditions: time 74 hrs, read-out: Activity
HK-2 [5] = experiment: Protection against cisplatin-induced nephrotoxicity in human HK-2 cells at 5 to 10 uM preincubated with compound for 2 hrs followed by cisplatin induction and measured after 72 hrs by MTT assay; format: functional, cell-based; conditions: dose 5-10 µM, time 74.0 hrs
[6] = molecular target: T1, Tyrosine-protein phosphatase non-receptor type 1 (Homo sapiens, UniProt P18031); experiment: Inhibition of PTP1B (unknown origin)
T1 sequence (P18031 whole entry): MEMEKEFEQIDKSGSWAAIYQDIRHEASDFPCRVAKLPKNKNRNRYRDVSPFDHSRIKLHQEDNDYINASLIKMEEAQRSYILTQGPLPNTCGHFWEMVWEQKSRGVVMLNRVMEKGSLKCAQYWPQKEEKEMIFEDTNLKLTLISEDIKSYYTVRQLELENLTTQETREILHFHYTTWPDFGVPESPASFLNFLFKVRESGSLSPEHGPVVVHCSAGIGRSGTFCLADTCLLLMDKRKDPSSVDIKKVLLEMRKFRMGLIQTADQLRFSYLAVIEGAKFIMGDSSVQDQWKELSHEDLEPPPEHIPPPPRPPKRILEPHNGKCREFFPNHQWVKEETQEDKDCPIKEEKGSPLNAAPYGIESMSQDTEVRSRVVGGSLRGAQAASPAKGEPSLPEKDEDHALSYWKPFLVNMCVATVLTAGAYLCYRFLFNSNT

HK-2 [7] = experiment: Protection against cisplatin-induced nephrotoxicity in human HK-2 cells assessed as cell viability at 10 uM preincubated with compound for 2 hrs followed by cisplatin induction and measured after 72 hrs by MTT assay (reference value: 37.37 +/- 1.35%); format: functional; conditions: time 74 hrs, read-out: Activity
HK-2 [8] = experiment: Protection against cisplatin-induced nephrotoxicity in human HK-2 cells assessed as cell viability at 5 uM preincubated with compound for 2 hrs followed by cisplatin induction and measured after 72 hrs by MTT assay (reference value: 37.37 +/- 1.35%); format: functional; conditions: time 74 hrs, read-out: Activity
HK-2 [9] = experiment: Protection against cisplatin-induced nephrotoxicity in human HK-2 cells assessed as cell viability at 1 uM preincubated with compound for 2 hrs followed by cisplatin induction and measured after 72 hrs by MTT assay (reference value: 37.37 +/- 1.35%); format: functional; conditions: time 74 hrs, read-out: Activity
HK-2 [10] = experiment: Protection against cisplatin-induced nephrotoxicity in human HK-2 cells increase in viability at 10 uM preincubated with compound for 2 hrs followed by cisplatin induction and measured after 72 hrs by MTT assay (reference value: 45.1%); format: functional; conditions: time 74 hrs
HK-2 [11] = experiment: Protection against cisplatin-induced nephrotoxicity in human HK-2 cells preincubated with compound for 2 hrs followed by cisplatin induction and measured after 72 hrs by MTT assay; format: functional, cell-based; conditions: dose 1-10 µM, time 74.0 hrs
[12] = Antitumor activity against cisplatin-induced mouse Lewis lung carcinoma cell line xenografted C57BL/6J mouse assessed as reduction in tumor mass at 50 mg/kg, po preadministered with compound for 3 days followed by cisplatin addition on day 3 and measured 72 hrs post cisplatin administration; format: functional; parameters: scale not given: the % may be the effect or the level left; conditions: time 6 day

SMILES | IC50 at 72 h [2] [µM] | viability at 10 µM (HK-2 [7]) [%] | viability at 5 µM (HK-2 [8]) [%] | viability at 1 µM (HK-2 [9]) [%] | other results
COc1c(CN2CCN(C)CC2)c(OC)c(C(=O)c2ccccc2)c2c1CC1CC/C(C)=C/CC(C)(C)/C=C/CC1(C)O2 (centres undefined) | 9.1 | – | – | – | viability at 5 µM (HK-2 [1]): 57.9%; viability at 1 µM (HK-2 [3]): 46.3%; viability at 10 µM (HK-2 [4]): 47.8%
COc1c2c(c(CN3CCN(C)CC3)c(OC)c1C(=O)c1ccccc1)OC1(C)C/C=C/C(C)(C)C/C=C(\C)CCC1C2 (centres undefined) | 9.5 | – | – | – | viability at 5 µM (HK-2 [1]): 59.6%; Activity (HK-2 [5]): Active; viability at 1 µM (HK-2 [3]): 49.7%; viability at 10 µM (HK-2 [4]): 64.2%
C[C@@H]1CC[C@@H]([C@@H](c2ccccc2)c2c(O)c(C=O)c(O)c(C=O)c2O)[C@]2(C)CC[C@@H](C(C)(C)O)C=C12 | – | – | – | – | IC50 [6]: 5 µM
COc1c(CO)c2c(c(OC)c1C(=O)c1ccccc1)CC1CC/C(C)=C/CC(C)(C)/C=C/CC1(C)O2 (centres undefined) | > 10 | – | – | – | viability at 5 µM (HK-2 [1]): 73.6%; Activity (HK-2 [5]): Active; viability at 1 µM (HK-2 [3]): 51.2%; viability at 10 µM (HK-2 [4]): 83.3%
COc1c2c(c(C(=O)c3ccccc3)c(OC)c1C(=O)O)OC1(C)C/C=C/C(C)(C)C/C=C(\C)CCC1C2 (centres undefined) | > 10 | – | – | – | viability at 5 µM (HK-2 [1]): 60.4%; Activity (HK-2 [5]): Active; viability at 1 µM (HK-2 [3]): 48.4%; viability at 10 µM (HK-2 [4]): 65%
CC12CCCC1Cc1c(O)c(C=O)c(O)c(C(=O)c3ccccc3)c1O2 (centres undefined) | > 10 | 51.7 | 49.6 | 41.5 | Activity (HK-2 [5]): Active
COc1c(CO)c(OC)c(C(=O)c2ccccc2)c2c1CC1CC/C(C)=C/CC(C)(C)/C=C/CC1(C)O2 (centres undefined) | > 10 | 61.6 | 50.5 | 39.1 | viability at 5 µM (HK-2 [1]): 80.8%; Activity (HK-2 [10]): >90%; Activity (HK-2 [5]): Active; Activity (HK-2 [11]): Dose-Dependent Effect; viability at 1 µM (HK-2 [3]): 45.7%; viability at 10 µM (HK-2 [4]): 95.5%
COc1c(C=O)c2c(c(OC)c1C(=O)c1ccccc1)CC1CC/C(C)=C/CC(C)(C)/C=C/CC1(C)O2 (centres undefined) | > 10 | – | – | – | viability at 5 µM (HK-2 [1]): 79.2%; Activity (HK-2 [5]): Active; viability at 1 µM (HK-2 [3]): 70.4%; viability at 10 µM (HK-2 [4]): 67.9%
COc1c(CO)c(OC)c(C(=O)c2ccccc2)c2c1CC1C[C@@H]3[C@H](CC1(C)O2)C3(C)C (some centres undefined) | > 10 | 59.2 | 43.1 | 36 | –
COc1c(C=O)c(OC)c(C(=O)c2ccccc2)c2c1CC1C[C@@H]3[C@H](CC1(C)O2)C3(C)C (some centres undefined) | > 10 | 39 | 39.8 | 36.3 | –
NCCCNCCSP(=O)(O)O [AMIFOSTINE] | – | – | – | – | Activity [12]: 28.2%
COc1c(CO)c(OC)c(C(=O)c2ccccc2)c2c1CC(C)C(C)(C)O2 (centres undefined) | > 10 | 34.2 | 31.4 | 38.3 | –
COc1c(C=O)c2c(c(OC)c1C(=O)c1ccccc1)CC1C[C@@H]3[C@H](CC1(C)O2)C3(C)C (some centres undefined) | > 10 | 35.5 | 30.8 | 30.1 | –
CC1Cc2c(O)c(C=O)c(O)c(C(=O)c3ccccc3)c2OC1(C)C (centres undefined) | > 10 | 47 | 43.6 | 39.9 | –
COc1c2c(c(CN3CCN(C)CC3)c(OC)c1C(=O)c1ccccc1)OC1(C)CCCCC1C2 (centres undefined) | > 10 | 37 | 37.1 | 40.2 | –
COc1c(CO)c(OC)c(C(=O)c2ccccc2)c2c1CC1CCCCC1(C)O2 (centres undefined) | > 10 | 44.6 | 44.3 | 38.8 | –

SMILES | IC50 at 72 h [2] [µM] | viability at 10 µM (HK-2 [7]) [%] | viability at 5 µM (HK-2 [8]) [%] | viability at 1 µM (HK-2 [9]) [%] | other results
CC12CCCC1Cc1c(O)c(C(=O)c3ccccc3)c(O)c(C=O)c1O2 (centres undefined) | > 10 | 38.6 | 38.2 | 37.2 | –
COc1c2c(c(CN3CCN(C)CC3)c(OC)c1C(=O)c1ccccc1)OC1(C)C[C@H]3[C@@H](CC1C2)C3(C)C (some centres undefined) | > 10 | 40.8 | 41.9 | 37.5 | –
COc1c2c(c(CN3CCN(C)CC3)c(OC)c1C(=O)c1ccccc1)OC1(C)CCCC1C2 (centres undefined) | > 10 | 38.3 | 39.4 | 36.4 | –
C/C1=C\CC(C)(C)/C=C/CC2(C)Oc3c(c(O)c(C=O)c(O)c3C(=O)c3ccccc3)CC2CC1 (centres undefined) | > 10 | – | – | – | viability at 5 µM (HK-2 [1]): 70.2%; viability at 1 µM (HK-2 [3]): 60.3%; viability at 10 µM (HK-2 [4]): 67.1%
COc1c(CO)c2c(c(OC)c1C(=O)c1ccccc1)CC(C)C(C)(C)O2 (centres undefined) | > 10 | 48.4 | 45.6 | 40.1 | Activity (HK-2 [5]): Active
COc1c2c(c(C(=O)c3ccccc3)c(OC)c1C(=O)O)OC(C)(C)C(C)C2 (centres undefined) | > 10 | 33.4 | 30.4 | 33.6 | –
COc1c2c(c(C(=O)O)c(OC)c1C(=O)c1ccccc1)OC(C)(C)C(C)C2 (centres undefined) | > 10 | 32 | 28.9 | 37.8 | –
CC1Cc2c(O)c(C(=O)c3ccccc3)c(O)c(C=O)c2OC1(C)C (centres undefined) | > 10 | 28.1 | 33.2 | 37.7 | –
COc1c2c(c(C(=O)O)c(OC)c1C(=O)c1ccccc1)OC1(C)C/C=C/C(C)(C)C/C=C(\C)CCC1C2 (centres undefined) | > 10 | – | – | – | viability at 5 µM (HK-2 [1]): 64.4%; Activity (HK-2 [5]): Active; viability at 1 µM (HK-2 [3]): 48.2%; viability at 10 µM (HK-2 [4]): 68.2%
COc1c(C=O)c2c(c(OC)c1C(=O)c1ccccc1)CC1CCCC1(C)O2 (centres undefined) | > 10 | 30.8 | 33.4 | 37.4 | –
C/C1=C\CC(C)(C)/C=C/CC2(C)Oc3c(C=O)c(O)c(C(=O)c4ccccc4)c(O)c3CC2CC1 (centres undefined) | 7.72 | – | – | – | viability at 5 µM (HK-2 [1]): 66.8%; viability at 1 µM (HK-2 [3]): 61.1%; viability at 10 µM (HK-2 [4]): 42.7%
COc1c(CN2CCN(C)CC2)c(OC)c(C(=O)c2ccccc2)c2c1CC(C)C(C)(C)O2 (centres undefined) | > 10 | 38.9 | 39.2 | 37.2 | –
COc1c(C=O)c2c(c(OC)c1C(=O)c1ccccc1)CC(C)C(C)(C)O2 (centres undefined) | > 10 | 46.2 | 43.7 | 37.5 | –
COc1c(CO)c2c(c(OC)c1C(=O)c1ccccc1)CC1CCCCC1(C)O2 (centres undefined) | > 10 | 36.9 | 41.8 | 37.7 | –
C=C1CC[C@@H]2[C@H](c3ccccc3)c3c(O)c(C=O)c(O)c(C=O)c3O[C@@]2(C)CC[C@H]2[C@H]1CC2(C)C | – | – | – | – | IC50 [6]: 5 µM
CC1(C)[C@H]2[C@H]3[C@@H](CC[C@]3(C)[C@@H](c3ccccc3)c3c(O)c(C=O)c(O)c(C=O)c3O)[C@](C)(O)CC[C@H]21 | – | – | – | – | IC50 [6]: 5 µM
